Data from US10994016B2, “Graphene oxide mediated cellular delivery of gadolinium-labeled molecules” (Northwestern University, priority 2015, dated 2021).
Several values for one entry are separate records, joined by “and”; a condition that tells them apart may be missing. Equal values may be shown once.

Legend:
[1] = Octanol-water partition coefficients; format: physicochemical; details: errors show SEM; Gd in each layer by ICP-MS
Experimental: Approximately 1 mg of each compound was dissolved in 1 mL of a 1:1 mixture of water/1-octanol. After shaking the sample tube vigorously for 30 s, the tube was placed on a rotator for gentle mixing over 6 h. The tube was then removed from the rotator and allowed to sit for 12 h to ensure complete separation of the aqueous and organic phases. […] Once separation was complete, 10 μL was removed from each layer to determine the concentration of Gd by ICP-MS. The partition coefficient was calculated from the following equation: log10P=log10(Co/Cw), where log10 P is the logarithm of the partition coefficient, Co is the concentration of Gd in the 1-octanol layer, and Cw is the concentration of Gd in the water layer.

[2] = test system: HeLa cells; experiment: Cellular delivery studies with and without GO co-incubation, HeLa; format: cell-based; details: for Gd content (fmol/cell): 24 h, replicate values; for Gd content (fmol/cell), Outliers: values removed as outliers (Chauvenet's criterion, * experimenter judgment)
Experimental: ICP-MS Samples were prepared in 15-mL conical tubes by adding ACS reagent grade nitric acid (70%), followed by incubation at 70° C. overnight to allow for complete sample digestion. The effectiveness of this digestion protocol was previously validated for GO. After incubation, a multi-element internal standard (containing Bi, Ho, In, Li, Sc, Tb, and Y, Inorganic Ventures, Christiansburg, Va.) and milli-Q water (18.2 MΩ·cm) were added to produce a final sample of 3% (v/v) nitric acid and 5 ng/mL internal standard.
ICP-MS was performed on a computer-controlled (Plasmalab software) Thermo X series II ICP-MS (Thermo Fisher Scientific, Waltham, Mass., USA) operating in standard mode equipped with an ESI SC-2 autosampler (Omaha, Nebr., USA). Each sample was acquired using 1 survey run (10 sweeps) and 3 main (peak jumping) runs (100 sweeps). The isotopes selected for analysis were Gd with In and Ho isotopes selected as internal standards for data interpolation. Instrument performance is optimized daily through an autotune followed by verification via a performance report (passing manufacturer specifications). Instrument calibration was accomplished by preparing individual-element Gd standards (Inorganic Ventures, Christiansburg, Va., USA) using concentrations of 0.78125, 1.5625, 3.125, 6.25, 12.50, 25.00, 50.00, 100.0, and 200.0 ng/mL containing 3.0% nitric acid (v/v) and 5.0 ng/mL of multi-element internal standard.
Dulbecco's modified phosphate buffered saline (DPBS), media, and dissociation reagents were purchased from Life Technologies (Carlsbad, Calif.). CorningBrand® cell culture consumables (flasks, plates, etc.) and sera were purchased from VWR Scientific (Radnor, Pa.). HeLa cells (ATCC® CCL-2™) and KB cells (ATCC® CCL-17™) were purchased from the American Type Culture Collection (ATCC, Manassas, Va.) and cultured in phenol red-free minimum essential media (MEM) supplemented with 10% fetal bovine serum (FBS). Prior to all experiments, cells were plated and allowed to incubate for 24 hours before dosing. Cells were harvested with 0.25% TrypLE for 5 minutes at 37° C. in a 5.0% CO2 incubator. For sterilization, all Gd(III)-labeled molecules were filtered with 0.2 μm sterile filters prior to concentration determination and storage at 4° C. GO was used as prepared without further sterilization. […] Cells were grown in a humidified incubator operating at 37° C. and 5.0% CO2.
Cell counting was conducted using a Guava EasyCyte Mini Personal Cell Analyzer (EMD Millipore, Billerica, Mass.). After cell harvesting, an aliquot (50 μL) of the cell suspensions was mixed with Guava ViaCount reagent (150 μL) and allowed to stain at room temperature for at least 5 minutes. The dilution factor of 4 was determined based upon optimum machine performance (20-150 cells/μL). After vortexing for 10 sec, stained cells were counted using a Guava EasyCyte Mini Personal Cell Analyzer (PCA) using the ViaCount software module. For each sample, 1000 events were acquired. Gating of live/dead and cell/debris classifications were performed manually by the operator.
Cellular delivery studies were performed with HeLa and KB cells. HeLa and KB were plated at a cell density of approximately 25,000 and 50,000 cells per well, respectively, in a 24-well plate as counted by a hemocytometer. Stock solutions of 1-14 (1 mM), 150 nm GO (100 μg/mL), and 1500 nm GO (100 μg/mL) were prepared using sterile Milli-Q water. Prior to dosing, 80 μL ([…]) of each GO (150 nm and 1500 nm) and 80 μL (80 nmol) of each Gd(III)-labeled molecule (1-14) were mixed and allowed to adsorb for at least 15 minutes. 150 μL Gd(III)-GO solutions were added to 250 μL media to give a final concentration of 188 μM Gd and 18.8 μg/mL GO. Cells were incubated with the mixture of Gd(III)-labeled molecules and GO for […]. To harvest, cells were rinsed in-plate three times with 500 μL PBS and trypsinized using 100 μL 0.25% TrypLE. […]

[3] = +150 nm GO co-incubation, 188 μM Gd(III), 18.8 μg/mL GO
[4] = +1500 nm GO co-incubation, 188 μM Gd(III), 18.8 μg/mL GO
[5] = molecule alone, without GO, 188 μM Gd(III), 24-well plate

| Compound | Water-Octanol LogP [1] | Gd content (fmol/cell) [2, 3] | Gd content (fmol/cell) [2, 4] | Gd content (fmol/cell) [2, 5] | Gd content (fmol/cell), Outliers ([2]; +150 nm GO) | Gd content (fmol/cell), Outliers ([2]; +1500 nm GO) | Gd content (fmol/cell), Outliers ([2]; molecule alone, without GO) | Delivery enhancement without adsorption time ([2]; 1500 nm GO, 188 μM Gd(III), 18.8 μg/mL GO) |
| --- | --- | --- | --- | --- | --- | --- | --- | --- |
| O=C([O-])CN1CCN(CC(=O)[O-])CCN(CC(O)Cn2cc(CCCOP(=O)(O)O)nn2)CCN(CC(=O)[O-])CC1.[Gd+3] (stereo not drawn) [Molecule 3] | −4.05 ± 0.17 | 1.84 fmol/cell and 1.36 fmol/cell and 1.29 fmol/cell | 1.61 fmol/cell and 1.64 fmol/cell and 1.41 fmol/cell | 0.74 fmol/cell and 0.90 fmol/cell and 0.65 fmol/cell | – | – | – | – |
| O=C([O-])CN1CCN(CC(=O)[O-])CCN(CC(O)Cn2cc(CCCC(=O)O)nn2)CCN(CC(=O)[O-])CC1.[Gd+3] (stereo not drawn) [Molecule 4] | −3.44 ± 0.28 | 0.31 fmol/cell and 0.23 fmol/cell (2×) and 0.33 fmol/cell and 0.25 fmol/cell and 0.13 fmol/cell and 0.16 fmol/cell and 0.17 fmol/cell and 0.20 fmol/cell and 0.29 fmol/cell and 0.22 fmol/cell | 0.58 fmol/cell and 0.27 fmol/cell and 0.33 fmol/cell and 0.30 fmol/cell and 0.31 fmol/cell and 0.53 fmol/cell | 0.51 fmol/cell and 0.26 fmol/cell and 0.25 fmol/cell and 0.23 fmol/cell and 0.34 fmol/cell and 0.36 fmol/cell | 0.66 fmol/cell and 0.76 fmol/cell and 0.62 fmol/cell | 1.00 fmol/cell | 0.76 fmol/cell | – |
| CC(O)CN1CCN(CC(=O)[O-])CCN(CC(=O)[O-])CCN(CC(=O)[O-])CC1.[Gd+3] (stereo not drawn) [Molecule 13] | −3.59 ± 0.16 | 1.09 fmol/cell and 1.47 fmol/cell and 1.02 fmol/cell | 1.36 fmol/cell and 1.84 fmol/cell and 0.82 fmol/cell and 1.59 fmol/cell and 1.47 fmol/cell | 0.51 fmol/cell and 0.42 fmol/cell and 0.61 fmol/cell | – | 0.53* fmol/cell and 0.55* fmol/cell | – | – |
| O=C([O-])CN1CCNCCN(CC(=O)[O-])CCN(CC(=O)[O-])CC1.[Gd+3] [Molecule 7] | −3.71 ± 0.02 | 0.53 fmol/cell and 0.39 fmol/cell (2×) and 0.42 fmol/cell and 0.44 fmol/cell (2×) and 1.09 fmol/cell and 0.73 fmol/cell | 0.63 fmol/cell and 0.55 fmol/cell and 0.68 fmol/cell and 0.50 fmol/cell and 1.05 fmol/cell and 1.36 fmol/cell | 0.47 fmol/cell and 0.39 fmol/cell and 0.51 fmol/cell and 0.46 fmol/cell and 0.75 fmol/cell and 0.83 fmol/cell | – | 6.54 fmol/cell and 4.00 fmol/cell | 4.93* fmol/cell and 4.31* fmol/cell | – |
| NCCCCCCN1CCN(CC(=O)[O-])CCN(CC(=O)[O-])CCN(CC(=O)[O-])CC1.[Gd+3] [Molecule 9] | −3.98 ± 0.07 | 28.63 fmol/cell and 32.09 fmol/cell and 29.78 fmol/cell | 11.67 fmol/cell and 20.36 fmol/cell and 14.83 fmol/cell | 6.86 fmol/cell and 7.54 fmol/cell and 4.78 fmol/cell and 7.33 fmol/cell and 8.77 fmol/cell and 6.65 fmol/cell and 7.40 fmol/cell | – | – | 13.02* fmol/cell and 14.46* fmol/cell and 18.05 fmol/cell and 24.04 fmol/cell | same result |
| O=C([O-])CN1CCN(CC(=O)[O-])CCN(CC(=O)[O-])CCN(CC(=O)[O-])CC1.[Gd+3] [Molecule 14] | −3.62 ± 0.23 | 0.35 fmol/cell and 0.26 fmol/cell and 0.21 fmol/cell | 0.34 fmol/cell and 0.21 fmol/cell and 0.18 fmol/cell and 0.31 fmol/cell | 0.22 fmol/cell and 0.31 fmol/cell and 0.20 fmol/cell | – | 4.32 fmol/cell | – | – |
| NCCCCCCCCCCCCN1CCN(CC(=O)[O-])CCN(CC(=O)[O-])CCN(CC(=O)[O-])CC1.[Gd+3] [Molecule 10] | −1.63 ± 0.04 | 45.53 fmol/cell and 50.10 fmol/cell and 48.08 fmol/cell | 14.47 fmol/cell and 26.93 fmol/cell and 18.26 fmol/cell | 3.88 fmol/cell and 5.08 fmol/cell and 4.54 fmol/cell | – | – | – | – |
| CCCCc1cn(CC(O)CN2CCN(CC(=O)[O-])CCN(CC(=O)[O-])CCN(CC(=O)[O-])CC2)nn1.[Gd+3] (stereo not drawn) [Molecule 1] | −2.18 ± 0.02 | 0.63 fmol/cell (2×) and 0.44 fmol/cell and 0.58 fmol/cell and 0.57 fmol/cell (2×) and 0.76 fmol/cell | 0.59 fmol/cell and 0.58 fmol/cell and 0.39 fmol/cell and 0.77 fmol/cell and 0.86 fmol/cell and 0.76 fmol/cell and 0.64 fmol/cell | 0.62 fmol/cell and 0.67 fmol/cell and 0.36 fmol/cell and 0.63 fmol/cell and 0.40 fmol/cell | 1.11 fmol/cell and 1.24 fmol/cell | 1.18 fmol/cell and 1.45 fmol/cell | – | – |
| O=C([O-])CN1CCN(CC(=O)[O-])CCN(CC(O)Cn2cc(CCCc3ccccc3)nn2)CCN(CC(=O)[O-])CC1.[Gd+3] (stereo not drawn) [Molecule 6] | −1.26 ± 0.08 | 1.13 fmol/cell and 0.53 fmol/cell and 0.68 fmol/cell and 0.73 fmol/cell (2×) and 0.47 fmol/cell and 0.87 fmol/cell | 1.29 fmol/cell and 1.24 fmol/cell and 0.67 fmol/cell and 0.64 fmol/cell | 0.78 fmol/cell and 0.72 fmol/cell and 0.40 fmol/cell and 0.47 fmol/cell and 0.58 fmol/cell | 3.26 fmol/cell | 4.12 fmol/cell | – | – |
| O=C([O-])CN(CCN(CC(=O)[O-])CC(=O)[O-])CCN(CC(=O)[O-])CC(=O)[O-].[Gd+3] [Molecule 11] | −3.80 ± 0.29 | 2.36 fmol/cell and 2.49 fmol/cell and 4.37 fmol/cell and 4.24 fmol/cell and 5.87 fmol/cell and 2.95 fmol/cell and 2.73 fmol/cell and 2.85 fmol/cell | 5.16 fmol/cell and 5.75 fmol/cell and 4.01 fmol/cell and 3.75 fmol/cell and 3.78 fmol/cell and 3.36 fmol/cell | 0.34 fmol/cell and 0.30 fmol/cell and 0.54 fmol/cell and 0.82 fmol/cell and 0.51 fmol/cell and 0.72 fmol/cell and 0.61 fmol/cell (2×) | – | – | – | – |
| O=C([O-])CN1CCN(CC(=O)[O-])CCN(CC(O)Cn2cc(CCCO)nn2)CCN(CC(=O)[O-])CC1.[Gd+3] (stereo not drawn) [Molecule 2] | −3.98 ± 0.06 | 0.84 fmol/cell and 0.81 fmol/cell and 0.90 fmol/cell | 0.59 fmol/cell and 0.88 fmol/cell and 0.70 fmol/cell | 0.30 fmol/cell and 0.38 fmol/cell and 0.36 fmol/cell | – | – | – | – |
